Results from patent US11497694B2, “Oral care compositions” (Colgate-Palmolive Company, priority 2017, dated 2022).

Test system: bacteria
Assay: Stabilizing effect of lysine on CPC-STPP / CPC-DV interaction (bacterial viability)
Type: cell-based
Details: PBS 100
Excerpt: Compositions were created to test the stabilizing effect that lysine had on the CPC and DV polymer. Mouthwashes were created according to the method of Example 1. Each sample was created with CPC and either STPP or DV. The compositions also contained varied amounts of lysine. The samples created are summarized below.

## CCO [Ethanol]
CPC-DV mouthwashes with varied lysine, pH 4.6
  Bacterial Viability at pH 4.6 (%): 11%
CPC-DV mouthwashes with varied lysine, pH 6.0
  Bacterial Viability at pH 6.0 (%): 19%
CPC-STPP mouthwashes with varied lysine
  Bacterial Viability (%): 23%
